Laboratory results as given in patent publication US11963953B2, “Deuterated compounds for restoring mutant p53 function” (PMV Pharmaceuticals, Inc., priority 2022, dated 2024).
Blank lines part the entries; values can stand above or below the compound they belong to.

How the values were obtained:
[1] = Pharmacokinetic analysis after single oral administration to male cynomolgus monkeys, with plasma levels of parent and glucuronidation metabolites; conditions: cynomolgus monkey, in vivo, 25 mg/kg
Protocol: The pharmacokinetics (PK) of a deuterated compound and a comparator compound were measured following a 2-phase single oral (PO) administration to male cynomolgus monkeys. Compound and metabolite levels were monitored for up to 48 hours following dosing.
A group of 3 non-naïve male cynomolgus monkeys were used in this 2-phase study with a 5-day washout period between each phase. Animals in Phases 1 or 2 were administered the compounds by single oral administration at 25 mg/kg. The vehicle used for the oral studies was 2% (w/v) hydroxypropylcellulose (HPC) w/v in water [“vehicle” ]. Administration was PO in fasted (overnight) animals. […] The body weights of the animals were in the range from 2.28 to 3.32 kg for males on the dosing day of Phase 1. All animals received a single oral gavage administration in each Phase.
Compound formulations were prepared in accordance with the following procedure: 257.0 mg of Compound C (4-[3-[4-[[(3S,4R)-3-fluoro-1-methyl-4-piperidyl]amino]-1-(2,2,2-trifluoroethyl)indol-2-yl]prop-2-ynylamino]-N-methyl-3-(methoxy)benzamide) was added to a pre-calibrated beaker, manually mixed with 1 mL of vehicle, stirred for 5 min to generate homogenous opaque suspension. An additional 40 mL of vehicle was added with manual mixing, and stirred for 5 min to generate a homogenous opaque suspension. An additional 9.218 mL of vehicle was added, and stirred overnight to generate a homogenous opaque suspension. 260.3 mg of Compound 3 (4-[3-[4-[[(3S,4R)-3-fluoro-1-methyl-4-piperidyl]amino]-1-(2,2,2-trifluoroethyl)indol-2-yl]prop-2-ynylamino]-N-methyl-3-(trideuteriomethoxy)benzamide) was added to a pre-calibrated beaker, manually mixed test article with 49.978 mL of vehicle, stirred for 30 min to generate a homogenous opaque suspension. Formulations were stored at room temperature for up to 15 days after preparation.
The detailed dosing and sampling regimens are described in the following table.
The concentrations of the compounds in all dosing solutions were determined by UPLC-UV [ACQUITY UPLC, ACQUITY UPLC BEH C8 1.7 m 2.1×100 mm Column, Mobile phase A: 0.1% FA & 2 mM HCOONH4 in water/ACN (v:v, 95:5), Mobile phase B: 0.1% FA & 2 mM HCOONH4 in ACN/water (v:v, 95:5)]. Three aliquots were taken from the bottom, middle and top regions of PO dosing solutions.
Plasma samples were collected at 0.25, 0.5, 1, 2, 4, 8, 12, 24 and 48 hours post-dose in Phases 1 and 2. Blank Plasma: Whole blood was collected from available stock animal into commercially available tubes containing K2-EDTA on wet ice and processed for plasma. The plasma was pooled to serve as blank monkey plasma. PK plasma: Approximately 0.5 mL of blood was collected at each time point via peripheral vessel from each study animal. The actual time for each sample collection was recorded. The deviations on sampling time were less than 1 minute for the time points pre-dose through 1 hour post-dose, and less than 5% of the nominal time for time points after 1 hour post-dose. All blood samples were transferred into commercial tube (Jiangsu Kangjian medical supplies Co., Ltd.) containing K2-EDTA (0.85-1.15 mg) and placed on wet ice until processed for plasma. Plasma samples were prepared within 1 hour of collection by centrifuging the blood samples at approximately 2-8° C., 3200×g for 10 minutes. Plasma samples of about 0.1 mL×2 aliquots (one for BA, and the other one for back up) for each time point were transferred into labeled polypropylene micro-centrifuge tubes and stored frozen in a freezer set to be maintained at −60° C. or lower until LC-MS/MS analysis. Concentrations of the compounds and metabolite in plasma samples were determined by a liquid chromatography tandem mass spectrometry (LC-MS/MS) method [Triple Quad 6500 Plus, ESI (+) ionization mode, MRM detection mode]. The plasma concentration of the compounds and metabolites in study animals was subjected to a non-compartmental pharmacokinetic analysis by using the Phoenix WinNonlin software (version 6.3 or above, Pharsight). […]

p53 Y220C = target: T1, p53 Y220C (Homo sapiens, UniProt P04637, Y220C); assay: In vitro DNA binding activity assay (HTRF / TR-FRET) of recombinant His-tagged p53 Y220C DNA binding domain with biotin-labeled consensus DNA; assay type: biochemical; conditions: concentration required to increase DNA binding activity of p53 Y220C by 50%
T1 construct: made in house; host or cells: E. coli
Protocol: The ability of a compound of the disclosure to stabilize p53 Y220C and increase the DNA binding activity of p53 Y220C was measured by a homogeneous time-resolved fluorescence (HTRF) assay. Recombinant His-tagged p53 Y220C used in the HTRF assay was expressed in the bacterium E. coli. The recombinant protein was a truncation mutant containing only amino acids 94-312 of p53, which encompassed the DNA binding domain (DBD) of p53 (SEQ ID NO.: 1). The His-tagged p53 Y220C was tested for DNA binding ability with a consensus sequence of DNA (DNA duplex with a sequence of 5 ¢-[…]-3 ¢; SEQ ID NO.: 2). SEQ ID NO.: 2 was then conjugated with a biotin label and used in the activity assay.
The binding of the recombinant His-tagged p53 Y220C protein and the biotin-labeled consensus DNA was measured using fluorescence resonance energy transfer (FRET). For the FRET assay, the binding between the p53 mutant and the DNA sequence was measured by detecting the fluorescence of the interaction between an anti-His antibody conjugated to allophycocyanin (APC) and streptavidin conjugated to europium to detect the biotin-labeled DNA.
The test compounds were prepared as 4.5 mM stock solutions in dimethyl sulfoxide (DMSO). The compounds of the disclosure were used to test the stabilization of p53 Y220C and increase in DNA binding activity of p53 Y220C. The stock solutions were then serially diluted 3-fold in DMSO, and 1.2 μL of the diluted solutions was added to each well of a 384-well polypropylene black plate. 30 μL of a 181 nM solution of the recombinant His-tagged p53 Y220C protein and 12.1 nM of APC conjugated anti-His tag antibody in ice-cold Assay Buffer 1 (50 mM Tris-HCl, pH 7.4; 75 mM KCl; 0.75 mM DTT; and 0.2 mg/mL bovine serum albumin (BSA) was added to each well containing the test compounds.
As a background control, […] of Assay Buffer 1 containing 12.1 nM of APC anti-His antibody was also added into a second set of serially-diluted compound plates. […] The assay signals were monitored by reading excitation at 340 nm, and emission fluorescence at 615 nm and 665 nm on a plate reader.
Normalized time-resolved fluorescence resonance energy transfer (TR-FRET) assay signal (Rn) was calculated by the formula: Rn=[(A-Ba-CD)/(D-Bd)](Dc-Bd) where A was the fluorescence intensity of the sample at 665 nm; D was the fluorescence intensity of the sample at 615 nm; Ba and Bd were plate background readings at 665 nm and 615 nm, respectively; and Dc was the fluorescence intensity of 1.8 nM Eu-SA in the assay buffer at 615 nm.
The cross-talk factor (C) was determined by the following formula: C═(Ac—Ba)/(Dc-Bd) where Ac was the fluorescence intensity of 1.8 nM Eu-labeled anti-FLAG antibody in the assay buffer at 665 nm. […] The SC150 values were calculated using either Prism™ or ActivityBase™.

SMILES: [2H]C([2H])([2H])Oc1cc(C(=O)NC)ccc1NCC#Cc1cc2c(N[C@@H]3CCN(C)C[C@@H]3F)cccc2n1CC(F)(F)F [Compound 3, 4-[3-[4-[[(3S,4R)-3-fluoro-1-methyl-4-piperidyl]amino]-1-(2,2,2-trifluoroethyl)indol-2-yl]prop-2-ynylamino]-N-methyl-3-(trideuteriomethoxy)benzamide]
- % of total analyte area, analyte Parent [1]: 42.0%
- AUC0-24 % Rel. to Cpd C value, analyte Parent [1]: 160%
- AUC(0-inf) [1]: 118 µg·h/mL
- AUCExtra [1]: 0.599%
- Cmax [1]: 10000 ± 4180 ng/mL
- Tmax [1]: 2 h
- half-life [1]: 6.37 h
- increase in AUC over Compound C [1]: about 60%
- reduction in glucuronidation metabolite (first named) [1]: 70%
- reduction in glucuronidation metabolite (second named) [1]: 10%
- AUC(0-t) ([1]; AUC0-24): 107 ± 29.2 µg·h/mL
- AUC(0-t) ([1]; AUC0-24, analyte Parent): 107 µg·h/mL
- AUC(0-t) ([1]; AUC0-last): 118 µg·h/mL

SMILES: [2H]C([2H])([2H])Oc1cc(S(C)(=O)=O)ccc1NCC#Cc1cc2c(N[C@H]3CCN(C)C[C@H]3F)cccc2n1CC(F)(F)F (racemic) [Compound 10, Rac-N-((3R,4S)-3-fluoro-1-methylpiperidin-4-yl)-2-(3-((2-(methoxy-d3)-4-(methylsulfonyl)phenyl)amino)prop-1-yn-1-yl)-1-(2,2,2-trifluoroethyl)-1H-indol-4-amine]
- SC150 (p53 Y220C): +++ (+++ = 0 nM < SC150 < 10 nM)

SMILES: [2H]C([2H])([2H])NC(=O)c1ccc(NCC#Cc2cc3c(N[C@@H]4CCN(C)C[C@@H]4F)cccc3n2CC(F)(F)F)c(OC)c1 [Compound 5, 4-[3-[4-[[(3S,4R)-3-fluoro-1-methyl-4-piperidyl]amino]-1-(2,2,2-trifluoroethyl)indol-2-yl]prop-2-ynylamino]-3-methoxy-N-(trideuteriomethyl)benzamide]
- SC150 (p53 Y220C): ++ (++ = 10 nM < SC150 < 50 nM)

Other lines, results leading:

- SC150 (p53 Y220C): +++ (+++ = 0 nM < SC150 < 10 nM)
SMILES: [2H]C([2H])([2H])NC(=O)c1ccc(NCC#Cc2cc3c(N[C@@H]4CCN(C)C[C@@H]4F)cccc3n2CC(F)(F)F)c(OC([2H])([2H])[2H])c1 [Compound 6, 4-[3-[4-[[(3S,4R)-3-fluoro-1-methyl-4-piperidyl]amino]-1-(2,2,2-trifluoroethyl)indol-2-yl]prop-2-ynylamino]-3-(trideuteriomethoxy)-N-(trideuteriomethyl)benzamide]

- SC150 (p53 Y220C): +++ (+++ = 0 nM < SC150 < 10 nM)
SMILES: [2H]C([2H])([2H])Oc1cc(S(C)(=O)=O)ccc1NCC#Cc1cc2c(N[C@@H]3CCN(C([2H])([2H])[2H])C[C@@H]3F)cccc2n1CC(F)(F)F (racemic) [Compound 4, rac-N-[(3S,4R)-3-fluoro-1-(trideuteriomethyl)-4-piperidyl]-2-[3-[4-methylsulfonyl-2-(trideuteriomethoxy)anilino]prop-1-ynyl]-1-(2,2,2-trifluoroethyl)indol-4-ylamine]
